Data from patent publication US10563271B2, “High-level production of diacetyl in a metabolically engineered lactic acid bacterium” (Danmarks Tekniske Universitet, priority 2015, dated 2020).

Key:
L. lactis strain CS4616m [1] = assay: Metal ion enhancement of diacetyl production from acetolactate in stationary-phase CS4616m culture; design: species or system Lactococcus lactis subsp. cremoris
Experimental: Graphical presentation of diacetyl formation from acetolactate as a function of time (hr) when L. lactis strain CS4616m is cultured in the presence of increasing levels of either Fe^3+ (B); Fe^2+ (C); and Cu^2+ (D). The time point for adding the metal catalysts during the cultivation of L. Lactis strain CS4616m was at 9.8 h, which is indicated by the straight line in (A). Experiments were conducted in duplicate and error bars indicate standard deviations.
Glucose, lactate, and ethanol were detected and quantitated using the Ultimate 3000 high-pressure liquid chromatography system (Dionex, Sunnyvale, USA) equipped with a Aminex HPX-87H column (Bio-Rad, Hercules, USA) and a Shodex RI-101 detector (Showa Denko K.K., Tokyo, Japan). Pyruvate was detected and quantitated using the DAD-3000 diode array detector (Dionex, Sunnyvale, USA). The column oven temperature was set at 60° C. with a mobile phase of 5 mM H2SO4, and the flow rate was 0.5 ml/min. Acetoin and α-acetolactate were measured colorimetrically based on Westerfeld et al. (1945). Diacetyl concentration was determined as described by Benson et al (1996).
When the cells entered the stationary phase, different concentrations of these metal catalysts were added to the cultivation medium. […] The yield and productivity for diacetyl production was as high as 0.87 mol mol^−1 glucose and 0.58 g/L·h based on 4 h data.

L. lactis strain CS4616m [2] = assay: Inhibition of growth of CS4616m culture by metal ions or diacetyl; type: cell-based, Lactococcus lactis subsp. cremoris
Experimental: FIG. 5. Inhibitory effect of diacetyl on growth of L. lactis CS4616m. (A) Graphical presentation of cell growth of L. Lactis strain CS4616m, as measured by cell density (OD600 nm), in the presence of diacetyl (0-10 mM), which was added when the culture reached a cell density (OD600 nm) of 0.6. (B) Graphical presentation of cell growth of L. Lactis strain CS4616m, as measured by cell density (OD600 nm), and substrate/product profile in the presence of 10 mM Fe^3+ (added in the beginning of growth phase).
The observed high yields of diacetyl by cells of the L. lactis strain CS4616m are achieved by the addition of metal ions to the cells after they have reached the desired cell biomass. […] The final biomass of a culture grown in the presence of 10 mM Fe^3+ was only 3.3 (OD600 nm) (FIG. 5B) compared to 8.5 (OD600 nm) in the absence of a Fe^3+ supplement (FIG. 5A). […] In summary, for optimal diacetyl production, L. lactis strain CS4616m should be cultivated under aerobic conditions in the presence of a carbon source, e.g. glucose, in the presence of hemin until a sufficient biomass has been reached, followed by the addition of metal ions, preferably Fe^3+ or Cu^2+), and maintaining the aerobic conditions, in order for the accumulated acetolactate to be converted into diacetyl with high yield. The observed increase in diacetyl production by cells of the L. lactis strain CS4616m in response to Fe^3+, Fe^2+ and Cu^2+ is consistent with the finding that these metal ions serve as accelerators of the non-enzymatic oxidative decarboxylation flux from acetolactate to diacetyl. Optionally, once a sufficient biomass of the genetically modified Lactococcus lactis has been obtained following cultivation in the presence of a source of protoporphyrin IX or iron-containing porphyrin (e.g. hemin), the conversion of accumulated acetolactate can be accelerated by elevating the temperature of the culture or culture medium, for example to 60-65 degrees centigrade.

L. lactis strain CS4616m [3] = assay: Respiration-dependent aerobic growth of L. lactis strain CS4616m at different hemin concentrations; type: cell-based, Lactococcus lactis subsp. cremoris
Experimental: L. lactis were grown aerobically at 30° C. in rich M17 broth (Terzaghi et al., 1975) supplemented with 2% (w/v) glucose and different concentrations of hemin in shaken 250 ml conical flasks. When required, antibiotics were added in the following concentrations: erythromycin: 200 μg/ml for E. coli and 5 μg/ml for L. lactis, tetracycline: 8 μg/ml for E. coli and 5 μg/ml for L. lactis, chloramphenicol: 20 μg/ml for E. coli and 5 μg/ml for L. lactis.
However, growth of the L. lactis strain was restored under aerobic conditions when hemin was present (FIG. 2B). The specific growth rate and final biomass density (OD600 nm) of the L. lactis strain increased in response to hemin concentrations of above 0.2 μg/ml, where a growth rate of 0.8 h^−1 and cell density of OD600 nm 8.5 was measured using a growth medium comprising 2% glucose, hemin levels were 1 μg/ml or above.

L. lactis strain CS4616m [4] = assay: Measurement of intracellular NADH and NAD+ (NAD+/NADH-Glo Assay); type: cell-based, Lactococcus lactis subsp. cremoris
Experimental: L. lactis cell culture harvested in the mid-exponential growth phase (OD600 nm=0.6) was frozen in liquid nitrogen and stored at −20° C. Extraction and quantification of NADH and NAD^+ were performed using the kit NAD^+/NADH-Glo™ Assay (Promega) according to the instructions. Intracellular NADH and NAD^+ concentrations were estimated by assuming that 1 g (dry weight) of cells corresponded to 1.67 ml of intracellular volume and the cell density of 1 OD600 nm corresponds to 0.35 g/I dry cell mass.
In the L. lactis respiration chain (FIG. 2A), electrons are transferred from NADH dehydrogenase (NoxAB), menaquinone to Cyt bd oxidase in the presence of hemin. The observed growth and NADH/NAD+ ratio of genetically engineered strain CS4616m induced by hemin is consistent with the theory that NADH generated by the glycolysis pathway can be replenished through respiration and that suitable hemin activators can be used to fine-tune respiration and restore cell growth in this strain.

[5] = 10 or 20 mM, present in growth medium from the beginning of the growth phase
[6] = aerobic, growth medium 2% glucose, hemin 1 μg/ml or above

[Cu+2] [Cu^2+] was tested, and the diacetyl concentration (L. lactis strain CS4616m [1]; 30 mM Cu^2+ added at stationary phase, after 1 h) was 78 mM, the “productivity for diacetyl production” value (L. lactis strain CS4616m [1]; 30 mM Cu^2+, after 1 h) was 0.619 g/L·h and the cell growth (L. lactis strain CS4616m [2]; [5]) was “inhibited growth”. The cell growth (L. lactis strain CS4616m [2]; metal ion added during the growth phase) was “totally abolished cell growth”.

For [Fe+3] [Fe^3+], the diacetyl concentration (L. lactis strain CS4616m [1]; 20 mM Fe^2+ added at stationary phase, after 4 h) was 78 mM, the diacetyl concentration (L. lactis strain CS4616m [1]; 30 mM Fe^3+ added at stationary phase, after 2 h, 108 mM glucose) was 85 mM and the diacetyl concentration (L. lactis strain CS4616m [1]; 30 mM Fe^3+ added at stationary phase, after 4 h, 108 mM glucose) was 95 mM. The “productivity for diacetyl production” value (L. lactis strain CS4616m [1]; 30 mM Fe^3+, based on 4 h data) was 0.58 g/L·h, the “yield for diacetyl production” value (L. lactis strain CS4616m [1]; 30 mM Fe^3+, based on 4 h data) was 0.87 mol mol^−1 glucose and the final biomass (L. lactis strain CS4616m [2]; 10 mM Fe^3+ from beginning of growth, 8.5 without Fe^3+ supplement) was 3.3 OD600 nm. For the same compound, the cell growth (L. lactis strain CS4616m [2]; [5]) was “inhibited growth”.

For CC(=O)C(C)=O [diacetyl], the cell growth (L. lactis strain CS4616m [2]; diacetyl (0-10 mM) added at OD600 nm of 0.6) was “inhibit cell growth”.

With hemin the cell density (L. lactis strain CS4616m [3]; [6]) was 8.5 OD600 nm, the growth rate (L. lactis strain CS4616m [3]; [6]) was 0.8 h⁻¹ and the “effect on cell growth” value (L. lactis strain CS4616m [3]; elevated hemin, circa 10 μg/ml or above (data not shown)) was “significant negative effect on cell growth”. The “final cell biomass and NADH/NAD+ ratio” value (L. lactis strain CS4616m [3]; hemin above 1 μg/ml (e.g. 5 μg/ml)) was “did not further increase”, the “growth of the strain under aerobic conditions” value (L. lactis strain CS4616m [3]; hemin present) was “restored” and the “NADH/NAD+ ratio” value (L. lactis strain CS4616m [4]; 0.3 μg/ml hemin) was 0.07. The “intracellular NAD+ concentration” value (L. lactis strain CS4616m [4]; 0.3 μg/ml hemin) was 0.25 mM, the “NADH/NAD+ ratio” value (L. lactis strain CS4616m [4]; 1 μg/ml hemin) was 0.03 and the “intracellular NAD+ concentration” value (L. lactis strain CS4616m [4]; 1 μg/ml hemin) was 0.47 mM.
